Each structure is given as a SMILES string. Where only a bound is given, the exact number is not on record here.

The values below come from patent US20160083391A1, “TRICYCLIC PIPERAZINE DERIVATIVE” (Sunovion Pharmaceuticals Inc., priority 2014, published 2016).

For the test, the system named is PDE1. As to the kind of experiment: In vitro HTRF PDE1 inhibition assay. Type of test: biochemical. The note with it: HTRF cGMP assay, 100 nM cyclic GMP, PDE (1A3, 1B or 1C) with calmodulin, 45 minutes at 37° C.; isoform of the tabulated values not stated. An outline of the steps: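 HTRF cGMP competition assay: PDE1A3, 1B or 1C with calmodulin acting on 100 nM cGMP in 1% DMSO, pH 7.4 buffer with Ca2+ and Mg2+, 45 min at 37 °C. Remaining cGMP detected with d2-cGMP and anti-cGMP cryptate (665/615 nm); IC50 reported as banded categories.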
Background: Time-resolved FRET reads energy transfer from a long-lived donor to a nearby acceptor.
Take `CC(C)c1n[nH]c2c(=O)n3c(nc12)C(C)N(C)CC3` (racemic) [Compound I-38, (±)-3-Isopropyl-5,6-dimethyl-5,6,7,8-tetrahydropyrazino[1,2-a]pyrazolo[4,3-d]pyrimidin-10(1H)-one]: the IC50 is > 10 µM. The result for `O=c1c2cnn(C3CC3)c2nc2n1CCN(Cc1ccccc1)C2` [Compound I-53, 8-Benzyl-1-cyclopropyl-6,7,8,9-tetrahydropyrazino[1,2-a]pyrazolo[3,4-d]pyrimidin-4(1H)-one] reads > 10 µM; that for `O=c1c2cn[nH]c2nc2n1CCNC2Cc1ccccc1` (racemic) [Compound I-6, (±)-9-Benzyl-6,7,8,9-tetrahydropyrazino[1,2-a]pyrazolo[3,4-d]pyrimidin-4(1H)-one], > 10 µM; that for `COc1ccc(CN2CCn3c(nc4c(C5CCCC5)n[nH]c4c3=O)C2)cc1` [Compound I-123, 3-Cyclopentyl-6-(4-methoxybenzyl)-5,6,7,8-tetrahydropyrazino[1,2-a]pyrazolo[4,3-d]pyrimidin-10(1H)-one], > 10 µM.

As for `Cc1cnc(CN2CCn3c(nn4c(C(C)C)ncc4c3=O)C2)cn1` [Compound I-208, 3-Isopropyl-7-((5-methylpyrazin-2-yl)methyl)-8,9-dihydro-6H-imidazo[5,1-f]pyrazino[2,1-c][1,2,4]triazin-11(7H)-one], the IC50 fell in the range of 1 to 10 µM.

`O=c1c2cnc(C3CCOC3)n2nc2n1CCN(Cc1ccc(Cl)cc1)C2` (racemic) [Compound I-233, (±)-7-(4-Chlorobenzyl)-3-(tetrahydrofuran-3-yl)-8,9-dihydro-6H-imidazo[5,1-f]pyrazino[2,1-c][1,2,4]triazin-11(7H)-one] gave a concentration for half-maximal inhibition (IC50) of 1 to 10 µM. Regarding `CC1Cn2c(nc3c(cnn3C(C)C)c2=O)CN1Cc1ccccc1` (racemic) [Compound I-105, (±)-8-Benzyl-1-isopropyl-7-methyl-6,7,8,9-tetrahydropyrazino[1,2-a]pyrazolo[3,4-d]pyrimidin-4(1H)-one], the IC50 was < 1 µM. As for `CC(C)c1ncc2c(=O)n3c(nn12)CN(c1ccc(Cl)cc1)CC3` [Compound I-175, 7-(4-Chlorophenyl)-3-isopropyl-8,9-dihydro-6H-imidazo[5,1-f]pyrazino[2,1-c][1,2,4]triazin-11(7H)-one], the IC50 is < 1 µM.

With `O=c1c2cnc(C3CCOC3)n2nc2n1CCN(c1ccccc1)C2` (racemic) [Compound I-229, (±)-7-Phenyl-3-(tetrahydrofuran-3-yl)-8,9-dihydro-6H-imidazo[5,1-f]pyrazino[2,1-c][1,2,4]triazin-11(7H)-one], the IC50 was < 1 µM.

`CC(C)n1ncc2c(=O)n3c(nc21)C(Cc1ccccc1)NCC3` (racemic) [Compound I-8, (±)-9-Benzyl-1-isopropyl-6,7,8,9-tetrahydropyrazino[1,2-a]pyrazolo[3,4-d]pyrimidin-4(1H)-one] registered an IC50 of 1 to 10 µM.

With `COc1cccc(N2CCn3c(nc4c(cnn4C(C)C)c3=O)C2)c1` [Compound I-97, 1-Isopropyl-8-(3-methoxyphenyl)-6,7,8,9-tetrahydropyrazino[1,2-a]pyrazolo[3,4-d]pyrimidin-4(1H)-one], the IC50 is < 1 µM. The result for `O=c1c2cnn(-c3ccccc3)c2nc2n1CCN(Cc1ccccc1)C2` [Compound I-30, 8-Benzyl-1-phenyl-6,7,8,9-tetrahydropyrazino[1,2-a]pyrazolo[3,4-d]pyrimidin-4(1H)-one] reads > 10 µM.

Compound `O=c1c2cnn(C3CCCC3)c2nc2n1CCN(Cc1ccccc1)C2` [Compound I-52, 8-Benzyl-1-cyclopentyl-6,7,8,9-tetrahydropyrazino[1,2-a]pyrazolo[3,4-d]pyrimidin-4(1H)-one] displayed an IC50 of 1 to 10 µM.

As for `CC(C)c1nn(C)c2c(=O)n3c(nc12)C(C)N(C)CC3` (racemic) [Compound I-41, (±)-3-Isopropyl-1,5,6-trimethyl-5,6,7,8-tetrahydropyrazino[1,2-a]pyrazolo[4,3-d]pyrimidin-10(1H)-one], the IC50 was > 10 µM. As to `COc1ccc(CN2CCn3c(nc4c(cnn4C4CCOC4)c3=O)C2)cc1` (racemic) [Compound I-219, (±)-8-(4-methoxybenzyl)-1-(tetrahydrofuran-3-yl)-6,7,8,9-tetrahydropyrazino[1,2-a]pyrazolo[3,4-d]pyrimidin-4(1H)-one], the IC50 was > 10 µM. The result for `CC(C)n1ncc2c(=O)n3c(nc21)CN(c1ccc(Cl)cc1)CC3` [Compound I-91, 8-(4-Chlorophenyl)-1-isopropyl-6,7,8,9-tetrahydropyrazino[1,2-a]pyrazolo[3,4-d]pyrimidin-4(1H)-one] reads < 1 µM; that for `Cc1ccc(CN2CCn3c(nc4c(cnn4C4CCCC4)c3=O)C2)cn1` [Compound I-187, 1-Cyclopentyl-8-((6-methylpyridin-3-yl)methyl)-6,7,8,9-tetrahydropyrazino[1,2-a]pyrazolo[3,4-d]pyrimidin-4(1H)-one], < 1 µM; that for `O=c1c2nnn(C3CCCC3)c2nc2n1CCN(Cc1ccc(Cl)cc1)C2` [Compound I-128, 6-(4-Chlorobenzyl)-3-cyclopentyl-5,6,7,8-tetrahydropyrazino[1,2-a][1,2,3]triazolo[4,5-d]pyrimidin-10(3H)-one], > 10 µM.

`O=c1c2cnn(C3CCOC3)c2nc2n1CCN(c1ccc(Cl)cc1)C2` (racemic) [Compound I-217, (±)-8-(4-Chlorophenyl)-1-(tetrahydrofuran-3-yl)-6,7,8,9-tetrahydropyrazino[1,2-a]pyrazolo[3,4-d]pyrimidin-4(1H)-one]: the concentration for half-maximal inhibition (IC50) is < 1 µM. In the case of `CCCn1ncc2c(=O)n3c(nc21)CN(c1ccc(Cl)cc1)CC3` [Compound I-167, 8-(4-Chlorophenyl)-1-propyl-6,7,8,9-tetrahydropyrazino[1,2-a]pyrazolo[3,4-d]pyrimidin-4(1H)-one], the 50% inhibitory concentration (IC50) is < 1 µM.

Turning to `COc1ccc(CN2CCn3c(nn4c(C5CCOCC5)ncc4c3=O)C2)cc1` [Compound I-234, 7-(4-Methoxybenzyl)-3-(tetrahydro-2H-pyran-4-yl)-8,9-dihydro-6H-imidazo[5,1-f]pyrazino[2,1-c][1,2,4]triazin-11(7H)-one], the half-maximal inhibitory concentration (IC50) was < 1 µM. On to `CC(C)c1n[nH]c2c(=O)n3c(nc12)C(Cc1ccccc1)N(Cc1ccccc1)CC3` (racemic) [Compound I-45, (±)-5,6-dibenzyl-3-isopropyl-5,6,7,8-tetrahydropyrazino[1,2-a]pyrazolo[4,3-d]pyrimidin-10(1H)-one], for which the IC50 is > 10 µM. The same measure for `CC(C)n1ncc2c(=O)n3c(nc21)CN(Cc1cncnc1)CC3` [Compound I-190, 1-Isopropyl-8-(pyrimidin-5-ylmethyl)-6,7,8,9-tetrahydropyrazino[1,2-a]pyrazolo[3,4-d]pyrimidin-4(1H)-one]: > 10 µM. `O=c1c2c(Nc3ccccc3)n[nH]c2nc2n1CCN(Cc1ccccc1)C2` [Compound I-50]: the IC50 was > 10 µM. With `COc1cncc(N2CCn3c(nc4c(cnn4C(C)C)c3=O)C2)c1` [Compound I-144, 1-Isopropyl-8-(5-methoxypyridin-3-yl)-6,7,8,9-tetrahydropyrazino[1,2-a]pyrazolo[3,4-d]pyrimidin-4(1H)-one], the IC50 was < 1 µM. On to `COc1ccc(C(C)N2CCn3c(nc4c(cnn4C4CCCC4)c3=O)C2)cc1` (racemic) [Compound I-114, (±)-1-Cyclopentyl-8-(1-(4-methoxyphenyl)ethyl)-6,7,8,9-tetrahydropyrazino[1,2-a]pyrazolo[3,4-d]pyrimidin-4(1H)-one], for which the IC50 fell in the range of 1 to 10 µM.

Usually IC50 stands for the point on the concentration scale where inhibition reaches its midpoint. A low value points to greater potency.
